The values below come from patent US10945986B2, “Treatment for ischemic stroke” (CHS Pharma, Inc., priority 2012, dated 2021).

One assay has as its system Hsp27. Briefly: Western blot of Hsp27 in core and penumbra, MCAO model. The class given is in vivo, rat. Conditions: DETC-MeSO treatment prior to MCAO surgery and reperfusion, N=8. In general terms: A western blot detects proteins with antibodies after separation by electrophoresis.
Assay [1] concerns C/EBP homologues protein (CHOP). As to the kind of experiment: CHOP expression (Western blot) in primary neuronal cultures subjected to hypoxia and reoxygenation. Type of assay: cell-based. The conditions noted are these: 24 hours hypoxia, 16 hours reoxygenation; densitometry vs actin. On the procedure: Primary neuronal cultures were subjected to 24 hours of hypoxia followed by 16 hours of reoxygenation and cells were harvested for protein extraction and Western blot analysis for expression of CHOP. Levels of CHOP were quantified by densitometry and expressed as a percentage of the signal for actin control samples.

For another assay, the system named is P-IRE-1. Briefly: P-IRE-1 expression (Western blot) in primary neuronal cultures subjected to hypoxia and reoxygenation. Type of assay: cell-based. Conditions: 24 hours hypoxia, 16 hours reoxygenation; densitometry vs actin. The protocol:
Primary neuronal cultures were subjected to 24 hours of hypoxia followed by 16 hours of reoxygenation and cells were harvested for protein extraction and Western blot analysis for expression of P-IRE-1. Levels of P-IRE-1 were quantified by densitometry and expressed as a percentage of the signal for actin control samples.

The subject of a further assay is Bcl-2. As to the kind of experiment: Western blot of Bcl-2 in core and penumbra, MCAO model. Type of assay: in vivo, rat.
The test system of assay [2] is middle cerebral artery occlusion (MCAO) stroke-induced brain infarction. Briefly: MCAO rat stroke model, infarct size by TTC staining. The class given is in vivo, Sprague-Dawley rats. The conditions noted are these: for reduction of ischemia-induced brain infarct size: DETC-MeSO 5.6 mg/kg i.p. 24 hr post MCAO/reperfusion, 8 animals; for effect of individual drug on ischemia-induced infarct size: individual drug at 1/10 dose (G-CSF 10 ug/kg; DETC-MeSO 0.56 mg/kg; sulindac 0.2 mg/kg), 24 hrs post MCAO.

A further assay concerns JNK. The conditions noted are these: rat, in vivo.
Another assay concerns CHOP. As to the kind of experiment: Western blot of CHOP, MCAO model. Conditions: G-CSF, Western blotting. Type of assay: in vivo, rat.
Another assay concerns pAKT. Conditions: rat, in vivo.

Excerpt for Hsp27: Western blotting on the core and the penumbra tissue of both hemispheres was employed for analysis of the expression of key proteins involved in apoptosis (Bcl-2), and cell protection and survival e.g., two heat shock proteins (HSP27, HSP70) and AKT.

For `CCN(CC)C(=O)[S+](C)[O-]` (stereo not drawn) [DETC-MeSO, S-methyl-N, N-diethylthiolcarbamate sulfoxide], the “Hsp-27 expression vs non-treated control animals” value in the assay on Hsp27 is “significantly increased”. Moreover, the “CHOP expression of hypoxia cells compared to DETC-MeSO-treated cells subjected to hypoxia” value in assay [1] is “about double”. Moreover, the “P-IRE-1 expression of hypoxia cells compared to DETC-MeSO-treated cells subjected to hypoxia” value in the assay on P-IRE-1 was 3-3.5 times. The “Bcl-2 expression vs non-treated control animals” value in the assay with Bcl-2 (DETC-MeSO treatment prior to MCAO surgery and reperfusion, core and penumbra, N=8) was “significantly increased”. Moreover, in assay [2] (2 injections: 60 minutes before ischemia and 20 minutes before start of reperfusion, TTC), the “infarct size as % of the area of the infarcts in the no-drug control group” value is on record as 29%. The “reduction of ischemia-induced brain infarct size” value is 64+/−11% in assay [2] (daily, 4 days) and 61+/−7% in assay [2] (daily, 8 days). Further, the “brain infarct size (morphological observation, TTC)” value in assay [2] (DETC-MeSO 5.6 mg/kg intraperitoneal 24 hr post MCAO/reperfusion, daily, both 4 and 8 days) is on record as “significantly reduced”. For the same molecule, the brain infarct size result in assay [2] (DETC-MeSO 5.6 mg/kg one hour before MCAO surgery and reperfusion, continued 4 days, sacrificed 4th day, 1% TTC) is recorded as “significantly reduced”. Further, the “decrease in infarct size compared with the no-drug treated group” value in assay [2] (DETC-MeSO 5.6 mg/kg pre-MCAO, 4 days, at 6 mm from frontal pole, N=21) is reported as 50%. The “brain infarct size compared to the control group” value in assay [2] (DETC-MeSO 1-7 mg, two injections (1 hr before MCAO surgery, day 11), sacrificed 11th day, 1% TTC) was “significantly reduced”. In addition, the “effect of individual drug on ischemia-induced infarct size” value in assay [2] (8 days) is listed as “no significant effect”.

B1: granulocyte colony-stimulating factor (protein, UniProt P09919 31-207, looked up)
Granulocyte …: TPLGPASSLPQSFLLKCLEQVRKIQGDGAALQEKLVSECATYKLCHPEELVLLGHSLGIPWAPLSSCPSQALQLAGCLSQLHSGLFLYQGLLQALEGISPELGPTLDTLQLDVADFATTIWQQMEELGMAPALQPTQGAMPAFASAFQRRAGGVLVASHLQSFLEVSYRVLRHLAQP
notes: granulocyte colony-stimulating factor; a stem cell enhancer and facilitator
Consider B1, for which the “JNK expression (pro-survival/anti-apoptotic marker)” value with JNK is listed as “up-regulation”. In addition, the “CHOP expression (pro-apoptotic protein)” value in the assay with CHOP is “down-regulation”. Besides, the “Bcl-2 expression (pro-survival/anti-apoptotic marker)” value with Bcl-2 (rat, in vivo) is reported as “up-regulation”. Besides, in the assay on pAKT, the “pAKT expression (pro-survival/anti-apoptotic marker)” value is listed as “up-regulation”. Besides, the “ischemia-induced brain infarct size vs non-treated control animals” value in assay [2] (G-CSF 50 μg/kg, 24 hours post ischemia) is listed as “greatly reduced”. The “infarct volume vs control group” value in assay [2] (G-CSF 50 μg/kg, 24 hours post ischemia, n=5) is “significantly reduced”. For the same molecule, the “percentage of infarct volume in entire brain vs control group” value in assay [2] (G-CSF 50 μg/kg, 24 hours post ischemia, n=5, P<0.05) is “significantly reduced”. The “effect of individual drug on ischemia-induced infarct size” value in assay [2] (8 days) is given as “no significant effect”.
